Patent publication US6747058B1
Converted amounts (≈) assume the structure as drawn.

How the values were obtained:
[1] = Pharmacokinetics (tmax) after intravenous and nebulizer inhalation administration, dog; type: in vivo; conditions: for Tmax at 14 day / Tmax: blood; for Tmax at 14 day: multiple dose (14 day)
Experimental: (§1) Two animal species, rat and dog, are administered the formulation in a 14 day multiple dose inhalation study with a nebulizer. Results from the pharmacokinetic portion of the study indicate comparability between tmax values found for intravenous and inhaled delivery.

[2] = Pharmacokinetics (tmax) after intravenous and nebulizer inhalation administration, rat; type: in vivo; conditions: blood; for Tmax: single dose; for Tmax at 14 day: multiple dose (14 day)
Experimental: as §1

[3] = cited from earlier work

CCCCCc1cc(O)c2c(c1)OC(C)(C)[C@@H]1CCC(C)=C[C@@H]21
App. calc. tmax ([1]; IV, 1 mg/kg, single dose, tmax minus duration of exposure): 1.9 min | Tmax at 14 day ([1]; inhaled or intranasal, 2 mg/kg, inhalation, 2 mg/kg, 8 minutes exposure, read-out: Average tmax (converted)): 10.2 min | Tmax at 14 day ([1]; inhaled or intranasal, 2 mg/kg, inhalation, 2 mg/kg, 8 minutes exposure, tmax minus duration of exposure, read-out: App. calc. tmax (converted)): 2.2 min | Tmax ([1]; inhaled or intranasal, 2 mg/kg, inhalation, 2 mg/kg, 8 minutes exposure, single dose, read-out: Average tmax (converted)): 15.6 min | Tmax ([1]; inhaled or intranasal, 2 mg/kg, inhalation, 2 mg/kg, 8 minutes exposure, single dose, tmax minus duration of exposure, read-out: App. calc. tmax (converted)): 7.6 min | Tmax at 14 day ([1]; inhaled or intranasal, 5 mg/kg, inhalation, 5 mg/kg, 20 minutes exposure, read-out: Average tmax (converted)): 22.2 min | Tmax at 14 day ([1]; inhaled or intranasal, 5 mg/kg, inhalation, 5 mg/kg, 20 minutes exposure, tmax minus duration of exposure, read-out: App. calc. tmax (converted)): 2.2 min | Tmax at 14 day ([1]; inhaled or intranasal, 15 mg/kg, inhalation, 15 mg/kg, 60 minutes exposure, read-out: Average tmax (converted)): 66 min | Tmax at 14 day ([1]; inhaled or intranasal, 15 mg/kg, inhalation, 15 mg/kg, 60 minutes exposure, tmax minus duration of exposure, read-out: App. calc. tmax (converted)): 6 min | Tmax ([1]; iv, 1 mg/kg, IV, 1 mg/kg, single dose, read-out: Average tmax (converted)): 1.8 min | Tmax ([1]; iv, 1 mg/kg, IV, 1 mg/kg, single dose, tmax minus duration of exposure, read-out: App. calc. tmax (converted)): 1.8 min | Tmax ([2]; inhaled or intranasal, 0.5 mg/kg, inhalation, 0.5 mg/kg, 1.25 minutes exposure, read-out: Average tmax (converted)): 5.7 min | Tmax ([2]; inhaled or intranasal, 0.5 mg/kg, inhalation, 0.5 mg/kg, 1.25 minutes exposure, tmax minus duration of exposure, read-out: App. calc. tmax (converted)): 4.45 min | Tmax at 14 day ([2]; inhaled or intranasal, 2 mg/kg, inhalation, 2 mg/kg, 5 minutes exposure, read-out: Average tmax (converted)): 6 min | Tmax at 14 day ([2]; inhaled or intranasal, 2 mg/kg, inhalation, 2 mg/kg, 5 minutes exposure, tmax minus duration of exposure, read-out: App. calc. tmax (converted)): 1 min | Tmax ([2]; inhaled or intranasal, 4.6 mg/kg, inhalation, 4.6 mg/kg, 15 minutes exposure, read-out: Average tmax (converted)): 33.3 min | Tmax ([2]; inhaled or intranasal, 4.6 mg/kg, inhalation, 4.6 mg/kg, 15 minutes exposure, tmax minus duration of exposure, read-out: App. calc. tmax (converted)): 18.3 min | Tmax at 14 day ([2]; inhaled or intranasal, 5 mg/kg, inhalation, 5 mg/kg, 15 minutes exposure, read-out: Average tmax (converted)): 17.4 min | Tmax at 14 day ([2]; inhaled or intranasal, 5 mg/kg, inhalation, 5 mg/kg, 15 minutes exposure, tmax minus duration of exposure, read-out: App. calc. tmax (converted)): 2.4 min | Tmax at 14 day ([2]; inhaled or intranasal, 15 mg/kg, inhalation, 15 mg/kg, 45 minutes exposure, read-out: Average tmax (converted)): 46.2 min | Tmax at 14 day ([2]; inhaled or intranasal, 15 mg/kg, inhalation, 15 mg/kg, 45 minutes exposure, tmax minus duration of exposure, read-out: App. calc. tmax (converted)): 1.2 min | Tmax ([2]; iv, 2 mg/kg, IV, 2 mg/kg, read-out: Average tmax (converted)): 2.1 min | Tmax ([2]; iv, 2 mg/kg, IV, 2 mg/kg, tmax minus duration of exposure, read-out: App. calc. tmax (converted)): 2.1 min | solubility in water [3]: 3000 µg/mL (≈ 9.54 mM)
